# From patent publication US10183030B2, “17α,21-diesters of cortexolone for use in the treatment of tumors” (COSMO TECHNOLOGIES LTD., priority 2014, dated 2019)
# pIC50: −log10 of the molar value. Where two headings read alike, the source gives them in different places.
# Tests used:
# MCF7 breast cancer cells = experiment: In vitro proliferation / cytotoxic assay, MCF7; type: cell-based; conditions: Homo sapiens
# Method: After 72 hours incubation cell were harvested, lysed and viability determined using the cell titer glow assay for viability.
# [1] = tested on: MiaPaca2 (AR low) pancreatic cancer cells; experiment: ATP-dependent proliferation/viability assay, MiaPaca2; type: cell-based; conditions: Homo sapiens
# Method: (§1) The experimental method consisted of: • 1. […] After 24 hours, 10 nM DHT (dihydrotestosterone) with or without anti-androgen compounds, or DMSO vehicle (negative control) was added to the cultures. • 3.
# (§2) Each compounds was titrated from 3 uM to 200 uM.
# [2] = tested on: Panc1 (AR+) pancreatic cancer cells; experiment: ATP-dependent proliferation/viability assay, Panc1; type: cell-based; conditions: Homo sapiens
# Method: as §1, §2
# HT29 colon cancer cells = experiment: In vitro proliferation, HT29 (cancer cell panel); type: cell-based; conditions: Homo sapiens, HT-29, HT29; for pIC50: Table IV, read-out: In vitro proliferation IC50 (micro Molar)
# Method: as §2
# [3] = tested on: stimulated PBMC (actively dividing cells); experiment: IC50 on stimulated PBMC (intrinsic toxicity); type: cell-based; conditions: Homo sapiens
# Method: (§4) The IC50 in PBMC were tested in 2 different activation status: • stimulated—actively dividing cells • resting—quiescent, non-dividing cells
# (§5) IC50 of the compounds was determined on fresh cells isolated from human blood (PBMC).
# [4] = tested on: PC3 (AR−) prostate cancer cells; experiment: ATP-dependent proliferation/viability assay, PC3; type: cell-based; conditions: Homo sapiens, 72 h, 3 days
# Method: (§3) The experiment was performed to test and to define the antitumor activity in vitro of cortexolone 17α-benzoate on LNCaP (AR^+) and PC3 (AR^−), representative of Prostatic cancer cell lines with Androgen Receptor (AR) positive or negative expression, respectively. The experimental method consisted of: • 1. […] After 24 hours, 10 nM DHT (dihydrotestosterone) with or without anti-androgen compounds, or DMSO vehicle (negative control) was added to the cultures. • 3.
# as §3, with “define” for “define the”, “17α-valerate-21-propionate (CB-03-10)” for “17α-benzoate”, “AR” for “Androgen Receptor (AR)”
# as §2
# [5] = tested on: PC3 (AR−) prostate cancer cells; experiment: ATP-dependent proliferation/viability assay, PC3; type: cell-based; conditions: Homo sapiens
# [6] = tested on: LNCaP (AR+) prostate cancer cells; experiment: ATP-dependent proliferation/viability assay, LNCaP; type: cell-based; conditions: Homo sapiens
# Method: as §3
# as §3, with “define” for “define the”, “17α-valerate-21-propionate (CB-03-10)” for “17α-benzoate”, “AR” for “Androgen Receptor (AR)”
# as §2
# [7] = In vivo pharmacokinetics in mouse plasma; conditions: mouse, in vivo, 40 mg/kg
# Method: The pharmacokinetic of CB-03-10 was evaluated in plasma of mice after intravenous (IV), subcutaneous (SC) and oral administration (PO).
# Mice (3 per group) were administered with the following doses, blood was collected at the indicated times. Plasma samples were analyzed by HPLC-MS/MS.
# [8] = tested on: resting PBMC (quiescent, non-dividing cells); experiment: IC50 on resting PBMC (intrinsic toxicity); type: cell-based; conditions: Homo sapiens
# Method: as §4, §5
# [9] = tested on: Caspase 8, 9 and 3/7 in MiaPaca2 cells; experiment: Caspase activity in MiaPaca2 cells; type: cell-based, human; conditions: 8, 24, 48 hours
# Method: From previous studies was determined that CB-03-10 induces apoptosis using Annexin V staining in MiaPaca2 cells. To better analyze the phenomenon the enzymatic activity of Caspase 8 (initiator caspase for Extrinsic Pathway) and Caspase 9 (initiator caspase for Intrinsic Pathway) and of Caspases 3 and 7 (effector caspases) were measured.
# After 24 hours test compounds were added to cells, Gemcitabine (a known pancreatic cancer chemotherapeutic agent) and DMSO were used as positive and negative control, respectively. After 8, 24, & 48 hours incubation with test compounds, cells were lysed in buffer containing the caspase 3/7 or 8 or 9 substrate and a stable luciferase in proprietary buffers. The lysates were transferred to white opaque plates before measuring luminescence in a Tecan Safire instrument. Parallel plates treated identically, were used to determine viable cells. All caspase activities were corrected for the number of viable cells.
# [10] = tested on: MiaPaca-2 xenograft tumor; experiment: MiaPaca2 human pancreatic tumor xenograft in nude mice, subcutaneous treatment; type: in vivo, mouse
# Method: The test was carried out comparing the anti-tumor activity of cortexolone 17α-benzoate at two different dosages (8.0 mg/kg, corresponding approximately at 230 μM, and 40 mg/kg, corresponding approximately at 1150 μM), versus the vehicle (i.e. 0.4% (v/v) tween 80 and 0.5% (w/v) carboxymethylcellulose in normal saline) and versus the comparator Cyproterone Acetate at two different dosages (7.4 mg/kg and 37 mg/kg).
# 1×10^6 MiaPaca-2 cells suspended in matrigel were subcutaneously injected into 6 week old athymic nude mice.
# The treatment with the tested compounds, with the vehicle and with the comparative compound, was initiated after the tumor volume has reached 50 mm^3 after transplantation. All compounds were injected 100 μL/mouse subcutaneously of low dose solution (approximately 230 μM) or 100 μL/mouse of high dose solution (approximately 1150 μM) of cortexolone 17α-benzoate, vehicle and cyproterone acetate, respectively. Compounds and controls were administered subcutaneously daily for 28 days.
# Tumors were measured every 4 days with a digital caliper.
# The results are plotted in FIG. 1 as average change in tumor volume relative to the start of treatment. Tumor volume was calculated according to the formula 0.5236(r1)^2(r2) where r1<r2.
# The test was carried out comparing the anti-tumor activity of cortexolone 17α-valerate-21-propionate (CB-03-10) at two different dosages (approximately 8.6 mg/kg and 43 mg/kg) versus the vehicle (i.e. 0.4% (v/v) tween 80 and 0.5% (w/v) carboxymethylcellulose in normal saline) and versus the comparator Cyproterone Acetate at two different dosages (7.4 mg/kg and 37 mg/kg).
# The treatment with the tested compound, with the vehicle and with the comparative compound was initiated after the tumor has reached a volume of 50 mm^3 after implantation, injecting subcutaneously 100 μL/mouse of low dose solution (approximately 230 μM) or 100 μL/mouse of high dose solution (approximately 1150 μM) of cortexolone 17α-valerate-21-propionate (CB-03-10), vehicle and cyproterone acetate, respectively. Compounds and controls were administered subcutaneously daily for 28 days.
# The results are plotted in FIG. 2 as average change in tumor volume relative to the start of treatment. Tumor volume was calculated according to the formula 0.5236(r1)^2(r2) where r1<r2.
# CPA a well-known anti-androgen was used as control. Briefly 1×10^6 MiaPaca2 cells suspended in matrigel were subcutaneously (SC) injected into 6 week old male athymic nude mice. Tumors were measured every 4 days with a digital caliper. Tumor volume was calculated according to the formula: 0.5236(r1) 2(r2) where r1<r2. Treatment with CB-03-10 and controls compounds was initiated after the tumor had reached 50 mm^3. Compounds diluted in DMSO/2-hydroxypropyl b-cyclodextrin (vehicle) were injected subcutaneously (SC) daily (100 μL/mouse) at the concentration of 40 mg/Kg daily for 28 consecutive days.
# [11] = MCF7, Table IV, read-out: In vitro proliferation IC50 (micro Molar)
# [12] = MIA PaCa-2, 72 h, MiaPaca2, Tables I and II, unit inferred, titrated from 3 uM to 200 uM, 3 days, read-out: IC50
# [13] = MIA PaCa-2, MiaPaca2, Table IV, read-out: In vitro proliferation IC50 (micro Molar)
# [14] = PANC-1, 72 h, Panc1, Tables I and II, unit inferred, titrated from 3 uM to 200 uM, 3 days, read-out: IC50
# [15] = PANC-1, Panc1, Table IV, read-out: In vitro proliferation IC50 (micro Molar)
# [16] = PBMC STIMULATED, Table IV, read-out: In vitro proliferation IC50 (micro Molar)
# [17] = Tables I and II, unit inferred, titrated from 3 uM to 200 uM
# [18] = Table IV, read-out: In vitro proliferation IC50 (micro Molar)
# [19] = 72 h, Tables I and II, unit inferred, compounds titrated from 3 uM to 200 uM, 3 days, read-out: IC50
# [20] = Table III, read-out: in vitro proliferation IC50 (μ/M)
"pIC50 [4, 17]","pIC50 [5, 18]","pIC50 [6, 19]","pIC50 [6, 18]",Compound,pIC50 (MCF7 breast cancer cells; [11]),"pIC50 [1, 12]","pIC50 [1, 13]","pIC50 [2, 14]","pIC50 [2, 15]",pIC50 (HT29 colon cancer cells),"pIC50 [3, 16]",Caspase 3/7 induction [9],other results
–,–,–,–,"CCCC(=O)OC1(C(=O)CO)CCC2C3CCC4=CC(=O)CC[C@]4(C)C3=CC[C@@]21C (single isomer, unassigned) [CB-03-04]",4.06,3.80,3.80,3.47,3.47,4.29,3.44,–,–
3.72,3.72,4.48,4.48,CCC(=O)O[C@]1(C(=O)CO)CC[C@H]2[C@@H]3CCC4=CC(=O)CC[C@]4(C)[C@H]3CC[C@@]21C [CB-03-01],3.92,3.96,3.96,3.31,3.31,–,7.00,–,–
–,–,–,–,"C[C@]12CCC(=O)C=C1CC[C@@H]1[C@@H]2CC[C@@]2(C)[C@H]1CC[C@]2(OC(=O)c1ccccc1)C(=O)CO [CB-03-06, cortexolone 17α-benzoate]",–,–,–,–,–,–,–,–,"pancreatic tumor size increase relative to the start of treatment ([10]; Examples 5 and 6, SC daily for 28 days, test compounds at high dose (approximately 1150 μM, 100 μL/mouse), Cyproterone Acetate treatment groups 7.4 and 37 mg/kg): less than 5 fold"
4.05,4.05,4.66,4.66,"CC(=O)O[C@]1(C(C)=O)CC[C@H]2[C@@H]3C=C(Cl)C4=CC(=O)[C@@H]5C[C@@H]5[C@]4(C)[C@H]3CC[C@@]21C [Cyproterone Acetate, Cyproterone acetate, reference compound]",4.19,4.41,4.41,4.34,4.34,–,4.21,–,"pIC50 ([1]; MIA PaCa-2, 72 h, MiaPaca2, 10 nM DHT, 3 days, Examples 3-4, Experiment 1, sigmoidal dose-response curve fit, read-out: IC50): 4.34; pIC50 ([1]; MIA PaCa-2, 72 h, MiaPaca2, 10 nM DHT, 3 days, Examples 3-4, Experiment 2, pooled experiments, least-squares fit, read-out: IC50): 4.41; pIC50 ([1]; MIA PaCa-2, MiaPaca2, Example 7, Experiment 1, read-out: IC50): 4.41; pIC50 ([1]; MIA PaCa-2, MiaPaca2, Example 7, Experiment 2, read-out: IC50): 4.41; pIC50 ([8]; resting PBMC, Example 7, Experiment 1, read-out: IC50 (microM) on Resting PBMC): 4.74; pIC50 ([8]; resting PBMC, Example 7, Experiment 2, read-out: IC50 (microM) on Resting PBMC): 4.08; pIC50 ([4]; 10 nM DHT, Examples 1-2, Experiment 1): 4.01; pIC50 ([4]; 10 nM DHT, Examples 1-2, Experiment 2): 4.05; pIC50 ([2]; PANC-1, 72 h, Panc1, 10 nM DHT, 3 days, Examples 3-4, Experiment 1, sigmoidal dose-response curve fit, read-out: IC50): 4.27; pIC50 ([2]; PANC-1, 72 h, Panc1, 10 nM DHT, 3 days, Examples 3-4, Experiment 2, pooled experiments, least-squares fit, read-out: IC50): 4.34; pIC50 ([2]; PANC-1, Panc1, Example 7, Experiment 1, read-out: IC50): 4.28; pIC50 ([2]; PANC-1, Panc1, Example 7, Experiment 2, read-out: IC50): 4.34; pancreatic tumor size increase relative to the initial size, during the treatment period ([10]; Example 22, 40 mg/Kg SC daily for 28 consecutive days): 12 fold; pIC50 ([3]; stimulated PBMC, Example 7, Experiment 1, read-out: IC50 (microM) on Stimulated PBMC): 4.20; pIC50 ([3]; stimulated PBMC, Example 7, Experiment 2, read-out: IC50 (microM) on Stimulated PBMC): 4.21; pIC50 ([6]; 72 h, 10 nM DHT, 3 days, Examples 1-2, Experiment 1 (sigmoidal dose response fit), read-out: IC50): 4.54; pIC50 ([6]; 72 h, 10 nM DHT, 3 days, Examples 1-2, Experiment 2 (nonlinear regression least squares fit), read-out: IC50): 4.66"
–,–,–,–,"Nc1ccn([C@@H]2O[C@H](CO)[C@@H](O)C2(F)F)c(=O)n1 [Gemcitabine, reference compound]",–,–,–,–,–,–,–,not seen until the 48 hours mark,–

Compound,"pIC50 [4, 17]","pIC50 [5, 18]","pIC50 [6, 19]","pIC50 [6, 18]",pIC50 (MCF7 breast cancer cells; [11]),"pIC50 [1, 12]","pIC50 [1, 13]","pIC50 [2, 14]","pIC50 [2, 15]",pIC50 (HT29 colon cancer cells),"pIC50 [3, 16]",Caspase 3/7 induction [9],other results
"CCCCC(=O)O[C@]1(C(=O)CO)CC[C@H]2[C@@H]3CCC4=CC(=O)CC[C@]4(C)[C@H]3CC[C@@]21C [CB-03-05, cortexolone 17α-valerate]",3.77,3.77,4.49,4.49,4.30,4.23,4.23,4.13,4.13,4.52,3.89,does not show a good profile for caspase activation,"pIC50 (MCF7 breast cancer cells; MCF7 (ER+PR+GR+/−), 72 hours, Table VI, unit inferred, read-out: IC50 on breast cancer cells): 4.30; pIC50 (MCF7 breast cancer cells; MCF7, Table III, read-out: in vitro proliferation IC50 (μ/M)): 4.30; body exposure (metabolite after CB-03-10 dosing) ([7]; po): 47 h/ng/mL; body exposure (metabolite after CB-03-10 dosing) ([7]; sc): 189 h/ng/mL; pIC50 ([1]; MIA PaCa-2, MiaPaca2, Table III, read-out: in vitro proliferation IC50 (μ/M)): 4.23; pIC50 ([8]; PBMC RESTING, Table III, read-out: in vitro proliferation IC50 (μ/M)): 3.92; pIC50 ([2]; PANC-1, Panc1, Table III, read-out: in vitro proliferation IC50 (μ/M)): 4.13; IC50 (HT29 colon cancer cells; Table III, read-out: in vitro proliferation IC50 (μ/M) (converted)): 30 µM; pIC50 [5, 20]: 3.77; pIC50 ([3]; PBMC STIMULATED, Table III, read-out: in vitro proliferation IC50 (μ/M)): 3.89; pIC50 [6, 20]: 4.49; pIC50 ([6]; general conclusion text, read-out: IC50 in LNCaP prostate cancer cells): 4.49"
